# From patent publication US20260317344A1, “EGFR INHIBITORS FOR TREATING DISEASE” (BLOSSOMHILL THERAPEUTICS, INC., priority 2023, published 2026)
# How the values were obtained:
# [1] = test system: NCI-H1975 cells; assay: 5-Day CellTiter Glo (CTG) cell proliferation assay, NCI-H1975; format: cell-based; conditions: Homo sapiens; NCI-H1975 cells (L858R/T790M EGFR), 5-day CTG proliferation, 120 hours; read-out: H1975 IC50
# Summary of the method: (§1)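 Luminescent ATP signal (CellTiter-Glo 2.0) after 120 hours of compound exposure gave IC50 values. PC-9 and HCC827 harbour EGFR d746-750; NCI-H1975 harbours L858R/T790M.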
# [2] = biological target: T1, pEGFR, PC-9 cells (d746-750 EGFR) (Homo sapiens, UniProt P00533, DEL746-750); assay: Cellular EGFR phosphorylation assay (LANCE Ultra TR-FRET) in PC-9 cells; format: cell-based; conditions: 4 hours at 37° C., read-out: PC-9 pEGFR IC50
# T1 construct: pEGFR (Tyr1068) TR-FRET
# Summary of the method: (§2)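 Cells were treated with compound for 4 h at 37 °C as a 9-point, 3-fold titration; A431 cells were stimulated with 40 ng/mL EGF for the final 10 min. Phospho-EGFR (Tyr1068) in lysates was read by TR-FRET after 4-6 h antibody incubation, and IC50 values were fitted.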
# [3] = test system: HCC827 cells; assay: 5-Day CellTiter Glo (CTG) cell proliferation assay, HCC827; format: cell-based; conditions: Homo sapiens; HCC827 cells (d746-750 EGFR), 5-day CTG proliferation, 120 hours; read-out: HCC827 IC50
# Summary of the method: as §1
# [4] = biological target: EGFR (L858R/T790M/C797S) (Homo sapiens, UniProt P00533, C797S/L858R/T790M); assay: HotSpot radiometric kinase assay, inhibition of EGFR L858R/T790M/C797S mutant; format: biochemical; conditions: 33P ATP, room temperature, 120 m
# Summary of the method: (§3)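 Kinase/substrate pairs in 20 mM HEPES pH 7.5, 10 mM MgCl2, 1 mM EGTA, 0.02% Brij35, 0.02 mg/ml BSA, 0.1 mM Na3VO4, 2 mM DTT, 1% DMSO, preincubated ~20 min with compound. Reaction started with ATP/33P-ATP ([…]), run 120 min at room temperature; phosphorylation read by P81 filter binding, IC50 from curve fits.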
# [5] = test system: BaF3 cells with engineered EGFR L858R/T790M/C797S; assay: 3-Day CellTiter Glo (CTG) cell proliferation assay, BaF3 EGFR L858R/T790M/C797S; format: cell-based; conditions: Mus musculus, 3-day CTG proliferation, 72 hours
# Summary of the method: (§4)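 Growth inhibition in transgene-bearing BaF3 lines was scored after three days of compound treatment by CellTiter-Glo 2.0 ATP luminescence, yielding IC50 values.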
# [6] = biological target: EGFR (D770_N771insNPG) (Homo sapiens, UniProt P00533, INS770NPG); assay: HotSpot radiometric kinase assay, inhibition of EGFR (D770_N771insNPG) mutant; format: biochemical; conditions: 33P ATP, room temperature, 120 m
# Summary of the method: as §3
# [7] = biological target: T2, pEGFR, NCI-H1975 cells (L858R/T790M EGFR) (Homo sapiens, UniProt P00533, L858R/T790M); assay: Cellular EGFR phosphorylation assay (LANCE Ultra TR-FRET) in NCI-H1975 cells; format: cell-based; conditions: 4 hours at 37° C., read-out: H1975 pEGFR IC50
# T2 construct: pEGFR (Tyr1068) TR-FRET
# Summary of the method: as §2
# [8] = biological target: EGFR (L858R) (Homo sapiens, UniProt P00533, L858R); assay: HotSpot radiometric kinase assay, inhibition of EGFR L858R mutant; format: biochemical; conditions: 33P ATP, room temperature, 120 m
# Experimental: (§5) Biochemical Assays for inhibition of wild-type and mutant EGFRs
# (§6) Briefly, specific kinase/substrate pairs along with required cofactors were prepared in reaction buffer; 20 mM HEPES pH 7.5, 10 mM […], 1 mM EGTA, 0.02% Brij35, 0.02 mg/ml BSA, 0.1 mM Na3VO4, 2 mM DTT, 1% DMSO. Compounds were delivered into the reaction, followed ~20 minutes later by addition of a mixture of ATP (Sigma, St. Louis MO) and ^33P ATP (Perkin Elmer, Waltham MA) to a final concentration of […]. Reactions were carried out at room temperature for 120 m, followed by spotting of the reactions onto P81 ion exchange filter paper (Whatman Inc., Piscataway, NJ). Unbound phosphate was removed by extensive washing of filters in 0.75% phosphoric acid. […] IC50 values and curve fits were obtained using Prism (GraphPad Software).
# [9] = biological target: T3, pEGFR, A431 cells (wildtype EGFR) (Homo sapiens, UniProt P00533); assay: Cellular EGFR phosphorylation assay (LANCE Ultra TR-FRET) in A431 cells; format: cell-based; conditions: 4 hours at 37° C., 40 ng/mL EGF for the final 10 minutes, read-out: A431 pEGFR IC50
# T3 construct: pEGFR (Tyr1068) TR-FRET
# Summary of the method: as §2
# [10] = test system: BaF3 cells with engineered EGFR L858R/C797S; assay: 3-Day CellTiter Glo (CTG) cell proliferation assay, BaF3 EGFR L858R/C797S; format: cell-based; conditions: Mus musculus, 3-day CTG proliferation, 72 hours
# Summary of the method: as §4
# [11] = test system: PC-9 cells; assay: 5-Day CellTiter Glo (CTG) cell proliferation assay, PC-9; format: cell-based; conditions: Homo sapiens; PC-9 cells (d746-750 EGFR), 5-day CTG proliferation, 120 hours; read-out: PC-9 IC50
# Summary of the method: as §1
# [12] = biological target: EGFR WT (Homo sapiens, UniProt P00533); assay: HotSpot radiometric kinase assay, inhibition of EGFR WT; format: biochemical; conditions: 33P ATP, room temperature, 120 m
# Experimental: as §5, §6
# [13] = biological target: EGFR (D746-750) (Homo sapiens, UniProt P00533, DEL746-750); assay: HotSpot radiometric kinase assay, inhibition of EGFR 746-750 mutant; format: biochemical; conditions: 33P ATP, room temperature, 120 m
# Summary of the method: as §3
# [14] = biological target: EGFR (L858R/T790M) (Homo sapiens, UniProt P00533, L858R/T790M); assay: HotSpot radiometric kinase assay, inhibition of EGFR L858R/T790M mutant; format: biochemical; conditions: 33P ATP, room temperature, 120 m
# Experimental: as §5, §6
# [15] = biological target: EGFR (D746-750/C797S) (Homo sapiens, UniProt P00533, C797S/DEL746-750); assay: HotSpot radiometric kinase assay, inhibition of EGFR 746-750/C797S mutant; format: biochemical; conditions: 33P ATP, room temperature, 120 m
# Summary of the method: as §3
# EGFR (L858R), sequence (P00533 25-1210 L858R): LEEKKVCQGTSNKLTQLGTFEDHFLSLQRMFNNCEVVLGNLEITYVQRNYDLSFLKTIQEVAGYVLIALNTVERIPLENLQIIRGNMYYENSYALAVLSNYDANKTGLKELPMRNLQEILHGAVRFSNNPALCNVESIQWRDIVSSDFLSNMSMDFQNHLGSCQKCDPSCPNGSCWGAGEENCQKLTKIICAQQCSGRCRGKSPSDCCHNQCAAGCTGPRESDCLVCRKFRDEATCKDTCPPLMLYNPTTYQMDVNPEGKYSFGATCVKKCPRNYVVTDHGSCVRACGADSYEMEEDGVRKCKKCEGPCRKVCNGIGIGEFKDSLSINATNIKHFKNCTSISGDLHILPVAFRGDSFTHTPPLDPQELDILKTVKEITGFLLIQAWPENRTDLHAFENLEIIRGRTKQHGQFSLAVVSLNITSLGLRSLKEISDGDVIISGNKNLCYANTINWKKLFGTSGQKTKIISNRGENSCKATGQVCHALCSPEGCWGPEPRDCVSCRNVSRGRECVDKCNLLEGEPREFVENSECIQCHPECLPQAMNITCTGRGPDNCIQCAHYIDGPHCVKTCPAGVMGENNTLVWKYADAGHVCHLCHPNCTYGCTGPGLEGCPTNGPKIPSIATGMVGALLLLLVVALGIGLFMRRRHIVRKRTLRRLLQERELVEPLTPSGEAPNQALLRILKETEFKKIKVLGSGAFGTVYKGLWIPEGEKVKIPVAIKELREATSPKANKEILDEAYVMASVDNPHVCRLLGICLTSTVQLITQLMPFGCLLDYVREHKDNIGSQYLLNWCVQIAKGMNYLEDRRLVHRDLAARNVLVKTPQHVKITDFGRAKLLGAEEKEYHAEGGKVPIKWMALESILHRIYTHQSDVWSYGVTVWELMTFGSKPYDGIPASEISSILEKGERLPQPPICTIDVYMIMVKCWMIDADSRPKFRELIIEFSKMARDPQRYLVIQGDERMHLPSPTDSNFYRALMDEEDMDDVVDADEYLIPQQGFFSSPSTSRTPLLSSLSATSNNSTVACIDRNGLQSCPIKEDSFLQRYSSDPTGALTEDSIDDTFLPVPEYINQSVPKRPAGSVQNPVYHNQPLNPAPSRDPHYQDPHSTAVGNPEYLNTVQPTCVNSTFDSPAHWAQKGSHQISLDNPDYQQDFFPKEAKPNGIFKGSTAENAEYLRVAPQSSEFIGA
# EGFR (D770_N771insNPG), sequence (P00533 with tags, fused parts or gaps INS770NPG limits assumed): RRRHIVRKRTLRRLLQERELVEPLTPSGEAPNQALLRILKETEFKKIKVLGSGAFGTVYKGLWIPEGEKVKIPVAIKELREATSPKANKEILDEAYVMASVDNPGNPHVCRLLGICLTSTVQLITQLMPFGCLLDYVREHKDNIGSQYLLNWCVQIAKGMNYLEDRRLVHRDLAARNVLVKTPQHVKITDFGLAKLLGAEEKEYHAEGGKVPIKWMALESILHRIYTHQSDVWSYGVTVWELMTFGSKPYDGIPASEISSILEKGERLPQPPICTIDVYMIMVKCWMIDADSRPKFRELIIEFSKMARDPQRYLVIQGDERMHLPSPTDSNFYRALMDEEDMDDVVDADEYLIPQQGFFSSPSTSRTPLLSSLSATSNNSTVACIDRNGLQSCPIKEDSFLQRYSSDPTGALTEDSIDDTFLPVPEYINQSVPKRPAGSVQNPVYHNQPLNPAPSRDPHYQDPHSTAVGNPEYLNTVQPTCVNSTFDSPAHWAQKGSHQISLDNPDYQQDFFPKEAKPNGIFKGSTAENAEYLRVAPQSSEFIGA
# EGFR (D746-750/C797S), sequence (P00533 with tags, fused parts or gaps DEL746-750/C797S): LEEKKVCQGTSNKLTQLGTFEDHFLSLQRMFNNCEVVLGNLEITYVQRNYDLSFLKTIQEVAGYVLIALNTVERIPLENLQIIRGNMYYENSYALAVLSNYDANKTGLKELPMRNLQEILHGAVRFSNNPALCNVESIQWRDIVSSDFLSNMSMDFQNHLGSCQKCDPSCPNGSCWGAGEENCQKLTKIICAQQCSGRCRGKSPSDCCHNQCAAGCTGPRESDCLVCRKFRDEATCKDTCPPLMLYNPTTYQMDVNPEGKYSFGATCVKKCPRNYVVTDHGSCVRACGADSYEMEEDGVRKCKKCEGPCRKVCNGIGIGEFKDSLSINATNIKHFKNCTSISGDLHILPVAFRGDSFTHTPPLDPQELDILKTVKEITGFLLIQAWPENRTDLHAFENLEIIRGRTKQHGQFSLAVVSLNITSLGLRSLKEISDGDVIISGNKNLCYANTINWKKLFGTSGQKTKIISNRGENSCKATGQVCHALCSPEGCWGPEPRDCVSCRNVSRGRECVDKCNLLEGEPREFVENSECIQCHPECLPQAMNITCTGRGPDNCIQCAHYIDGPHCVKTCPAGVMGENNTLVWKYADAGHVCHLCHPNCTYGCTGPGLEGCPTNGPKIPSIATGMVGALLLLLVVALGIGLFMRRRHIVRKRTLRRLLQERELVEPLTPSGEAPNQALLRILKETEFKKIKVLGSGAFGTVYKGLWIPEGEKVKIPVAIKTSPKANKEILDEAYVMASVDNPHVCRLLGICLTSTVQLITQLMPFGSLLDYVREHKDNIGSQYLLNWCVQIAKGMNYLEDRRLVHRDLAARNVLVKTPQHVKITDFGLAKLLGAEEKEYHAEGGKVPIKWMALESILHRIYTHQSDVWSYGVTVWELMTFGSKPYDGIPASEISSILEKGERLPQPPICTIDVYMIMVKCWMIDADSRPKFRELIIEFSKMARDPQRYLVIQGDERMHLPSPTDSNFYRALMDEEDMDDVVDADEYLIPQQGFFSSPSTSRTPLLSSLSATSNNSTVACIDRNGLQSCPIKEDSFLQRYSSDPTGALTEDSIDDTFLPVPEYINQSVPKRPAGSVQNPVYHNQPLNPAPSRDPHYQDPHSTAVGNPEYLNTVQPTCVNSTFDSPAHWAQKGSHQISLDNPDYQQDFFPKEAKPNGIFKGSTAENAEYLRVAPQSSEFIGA
# EGFR (L858R/T790M/C797S), sequence (P00533 25-1210 T790M/C797S/L858R): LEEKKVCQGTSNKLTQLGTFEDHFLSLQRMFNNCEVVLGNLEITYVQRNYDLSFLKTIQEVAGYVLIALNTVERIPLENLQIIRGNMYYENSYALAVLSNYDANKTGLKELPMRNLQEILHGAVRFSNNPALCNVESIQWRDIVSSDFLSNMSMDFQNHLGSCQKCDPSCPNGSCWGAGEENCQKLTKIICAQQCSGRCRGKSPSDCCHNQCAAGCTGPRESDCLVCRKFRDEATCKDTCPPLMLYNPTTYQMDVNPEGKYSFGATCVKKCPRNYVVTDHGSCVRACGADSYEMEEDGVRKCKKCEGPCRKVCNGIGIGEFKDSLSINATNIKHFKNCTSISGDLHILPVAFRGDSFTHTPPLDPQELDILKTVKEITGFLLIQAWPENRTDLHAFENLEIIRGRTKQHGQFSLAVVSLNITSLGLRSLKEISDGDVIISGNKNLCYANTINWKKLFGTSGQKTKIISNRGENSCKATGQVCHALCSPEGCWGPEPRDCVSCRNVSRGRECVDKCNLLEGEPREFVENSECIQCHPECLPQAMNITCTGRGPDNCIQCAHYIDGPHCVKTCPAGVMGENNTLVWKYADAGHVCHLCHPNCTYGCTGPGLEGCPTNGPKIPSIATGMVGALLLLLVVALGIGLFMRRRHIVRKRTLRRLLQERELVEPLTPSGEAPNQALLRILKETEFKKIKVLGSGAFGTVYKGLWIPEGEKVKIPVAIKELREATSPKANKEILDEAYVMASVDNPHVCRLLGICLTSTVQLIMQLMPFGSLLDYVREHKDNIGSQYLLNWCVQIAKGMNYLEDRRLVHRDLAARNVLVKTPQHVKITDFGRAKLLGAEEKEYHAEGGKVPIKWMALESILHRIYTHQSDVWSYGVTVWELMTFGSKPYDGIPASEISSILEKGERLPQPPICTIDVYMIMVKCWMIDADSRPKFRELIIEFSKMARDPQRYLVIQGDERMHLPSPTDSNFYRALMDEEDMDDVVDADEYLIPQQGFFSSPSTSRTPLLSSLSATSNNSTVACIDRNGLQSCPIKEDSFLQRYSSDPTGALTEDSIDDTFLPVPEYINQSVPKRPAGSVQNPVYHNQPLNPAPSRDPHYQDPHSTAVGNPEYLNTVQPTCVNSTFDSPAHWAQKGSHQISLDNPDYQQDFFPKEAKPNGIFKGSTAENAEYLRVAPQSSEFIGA
Structure (SMILES),IC50 [1],IC50 [2],IC50 [3],IC50 [4],IC50 [5],IC50 [6],IC50 [7],IC50 [8],IC50 [9],IC50 [10],IC50 [11],IC50 [12],IC50 [13],IC50 [14],IC50 [15]
"CCOc1nn([C@@H](C)CO)c2c1/C=C/c1n[nH]c3cnc(cc13)-c1cnn(C)c1O[C@@H](C)CN(C)C2 [Ex. 19, (2S)-2-[(10S,17E)-16-ethoxy-8,10,12-trimethyl-2,8,10,11,12,13-hexahydro-14H-5,3-(azenometheno)tripyrazolo[3,4-f:3′,4′-j:4″,3″-n][1,4]oxazacyclopentadecin-14-yl]propan-1-ol]",1.51 nM,2.54 nM,0.28 nM,1.78 nM,0.79 nM,0.19 nM,2.85 nM,0.2 nM,10 nM,0.16 nM,2.74 nM,0.15 nM,0.14 nM,0.37 nM,0.6 nM
"CC(C)Oc1nn(CCO)c2c1/C=C/c1n[nH]c3cnc(cc13)-c1cnn(C)c1O[C@@H](C)CN(C)C2 [Ex. 5, 2-[(10S,17E)-8,10,12-trimethyl-16-[(propan-2-yl)oxy]-2,8,10,11,12,13-hexahydro-14H-5,3-(azenometheno)tripyrazolo[3,4-f:3′,4′-j:4″,3″-n][1,4]oxazacyclopentadecin-14-yl]ethan-1-ol]",4.88 nM,6.4 nM,0.99 nM,0.1 nM,–,0.08 nM,3.99 nM,0.13 nM,29.2 nM,–,33.5 nM,0.08 nM,0.08 nM,0.11 nM,0.45 nM
"CCOc1nn(CCO)c2c1/C=C/c1n[nH]c3cnc(cc13)-c1cnn(C)c1OC[C@H](C)N(CC)C2 [Ex. 7, 2-[(11S,17E)-16-ethoxy-12-ethyl-8,11-dimethyl-2,8,10,11,12,13-hexahydro-14H-5,3-(azenometheno)tripyrazolo[3,4-f:3′,4′-j:4″,3″-n][1,4]oxazacyclopentadecin-14-yl]ethan-1-ol]",47.4 nM,24.3 nM,5.17 nM,0.23 nM,–,1.09 nM,14.2 nM,0.89 nM,70.9 nM,–,59.7 nM,1.16 nM,0.29 nM,0.28 nM,0.74 nM

# More lines, now with the values ahead:
IC50 [1],IC50 [2],IC50 [3],IC50 [4],IC50 [5],IC50 [6],IC50 [7],IC50 [8],IC50 [9],IC50 [10],IC50 [11],IC50 [12],IC50 [13],IC50 [14],IC50 [15],Structure (SMILES)
3.22 nM,3.48 nM,0.39 nM,0.49 nM,0.93 nM,0.29 nM,4.19 nM,0.45 nM,19.8 nM,0.19 nM,12.1 nM,0.18 nM,0.67 nM,0.45 nM,0.33 nM,"CCN1Cc2c(c(OC(C)C)nn2CCO)/C=C/c2n[nH]c3cnc(cc23)-c2cnn(C)c2O[C@@H](C)C1 [Ex. 9, 2-[(10S,17E)-12-ethyl-8,10-dimethyl-16-[(propan-2-yl)oxy]-2,8,10,11,12,13-hexahydro-14H-5,3-(azenometheno)tripyrazolo[3,4-f:3′,4′-j:4″,3″-n][1,4]oxazacyclopentadecin-14-yl]ethan-1-ol]"
28 nM,6.85 nM,1.98 nM,0.12 nM,–,0.07 nM,10.9 nM,0.16 nM,42.7 nM,–,27.6 nM,0.13 nM,0.09 nM,0.15 nM,0.49 nM,"CCOc1nn(CCO)c2c1/C=C/c1n[nH]c3cnc(cc13)-c1cnn(C)c1O[C@H](C)CN(CC)C2 [Ex. 6, 2-[(10R,17E)-16-ethoxy-12-ethyl-8,10-dimethyl-2,8,10,11,12,13-hexahydro-14H-5,3-(azenometheno)tripyrazolo[3,4-f:3′,4′-j:4″,3″-n][1,4]oxazacyclopentadecin-14-yl]ethan-1-ol]"
